Reference: PMC10046946, “Novel Phthalic-Based Anticancer Tyrosine Kinase Inhibitors: Design, Synthesis and Biological Activity” (Current Issues in Molecular Biology, 2023)

How the values were obtained:
[1] = tested on: K562 cells; test: Cell cycle analysis (propidium iodide, flow cytometry); type: cell-based; conditions: 48 h
Method: Tumor cells were seeded on a 6-well plate at a density of 400,000 per well for K562. Test compounds 5, 14 and 15 were added at concentrations of 1, 5 and 10 μM in duplicate for 48 h. The methodology and analysis of the obtained data were performed as described in our prior work.
As shown above, compounds 5, 14 and 15 had significant antiproliferative activities, which is why their influences on the cell cycle and apoptosis level were determined, with the aim of understanding whether these effects are cytostatic or cytotoxic. In the cell cycle experiments, K562 cells were used. […] For the determination of changes in the distribution of cells in the phases of the cell cycle, the widely employed method of staining the cells with propidium iodide was used.

[2] = tested on: HepG2 (human liver cancer); test: MTT cell proliferation assay, HepG2; type: cell-based; conditions: Homo sapiens, HepG2, 72 h, HepG2, 72 h of exposition, read-out: Anti-proliferative activity IC50, HepG2
Method: (§1) Tests to determine the effects of the synthesized compounds on cell viability and the half-maximal inhibitory concentration (IC50) were performed using the MTT assay, as described in our prior work.
(§2) The target compounds 5, 6, 8–12, 14, 15, 17–22 and 24–26 were tested for antiproliferative activity against six cancer cell lines: K562 (chronic myelogenous leukemia), HL-60 (promyelocytic leukemia), MCF-7 (breast adenocarcinoma), HepG2 (human liver cancer), A549 (lung carcinoma) and OKP-GS (renal cell carcinoma). The RPMI 1788 cells (B lymphocyte, human) were used as a control to evaluate the system toxicity of the studied compounds to normal cells. Sorafenib, nilotinib and lapatinib were utilized as reference standards for comparison.

[3] = tested on: RPMI 1788 cells (B lymphocyte, human); test: MTT cell proliferation assay, normal RPMI 1788 cells; type: cell-based; conditions: normal human lymphoblastoid cells RPMI 1788, 72 h of exposition, read-out: Anti-proliferative activity IC50, RPMI 1788
Method: as §1, §2

[4] = tested on: K562 (chronic myelogenous leukemia); test: MTT cell proliferation assay, K562; type: cell-based; conditions: Homo sapiens, K562, 72 h of exposition, read-out: Anti-proliferative activity IC50, K562
Method: as §1, §2

[5] = tested on: A549 (lung carcinoma); test: MTT cell proliferation assay, A549; type: cell-based; conditions: Homo sapiens, A549, 72 h of exposition, read-out: Anti-proliferative activity IC50, A549
Method: as §1, §2

[6] = tested on: K562 cells; test: Annexin V-FITC/PI apoptosis assay; type: cell-based; conditions: 48 h
Method: K562 tumor cells were plated on a 6-well plate at a density of 400,000 per well. Test compounds 5, 14 and 15 were added at concentrations of 1, 5 and 10 μM in duplicate for 48 h. The methodology and analysis of the obtained data were performed as described in our prior work.
The effects of compounds 5, 14 and 15 on cell apoptosis were examined using the Annexin V-FITC Kit (Beckman Coulter, Brea, CA, USA) according to the protocols provided. The Annexin V-FITC Kit is an apoptosis detection kit based on the binding properties of annexin V to phosphatidylserine (PS) and on the DNA intercalating capability of propidium iodide (PI). K562 cells were treated with compound 5, 14 and 15 at 1, 5 and 10 μM for 48 h, after which annexin V/PI binding was measured by flow cytometry.

[7] = tested on: HL-60 (promyelocytic leukemia); test: MTT cell proliferation assay, HL-60; type: cell-based; conditions: Homo sapiens, HL-60, 72 h of exposition, read-out: Anti-proliferative activity IC50, HL-60
Method: as §1, §2

[8] = tested on: K562 cell line; test: ROS determination (DCFH-DA, flow cytometry); type: cell-based; conditions: 48 h
Method: The redox status was assessed using the K562 cell line. […] Then, the cells were washed to remove the 2′,7′-dichlorodihydrofluorescein diacetate by centrifugation at 1000 rpm for 5 min. The measurements were conducted using a Cytomics FC500 Beckman Coulter flow cytometer (FL1 channel for DCF).

[9] = tested on: OKP-GS (renal cell carcinoma); test: MTT cell proliferation assay, OKP-GS; type: cell-based; conditions: 72 h of exposition, read-out: Anti-proliferative activity IC50, OKP-GS
Method: as §1, §2

[10] = tested on: MCF-7 (breast adenocarcinoma); test: MTT cell proliferation assay, MCF-7; type: cell-based; conditions: Homo sapiens, MCF7, MCF-7, 72 h of exposition, read-out: Anti-proliferative activity IC50, MCF-7
Method: as §1, §2

[11] = target: T1, PDGFRβ (Homo sapiens, UniProt P09619); test: ADP-Glo kinase assay, PDGFRβ; type: biochemical
T1 construct: purchased Promega
Method: (§3) The ADP-Glo kinase assay (Promega, Madison, WI, USA) was used to screen compounds 5, 8–10, 14, 17, 19 and 24 for the tyrosine kinase (Kinase Selectivity Profiling System TK-1, Promega, Madison, WI, USA) and serine/threonine kinase (Kinase Selectivity Profiling System Other/CK-1, Promega, Madison, WI, USA) inhibition effects according to the manufacturer’s technical manual. The luminescence data were analyzed as described in our prior work.
(§4) The selectivity of the potential kinase inhibitor against a specific protein kinase or a specific family of kinases was investigated using the Kinase Selectivity Profiling System TK-1, Other/CK-1 and ADP-Glo™ Kinase assay kit (Promega, Madison, WI, USA).

[12] = target: T2, PDGFRα (Homo sapiens, UniProt P16234); test: ADP-Glo kinase assay, PDGFRα; type: biochemical
T2 construct: purchased Promega
Method: as §3, §4

T2 sequence (P16234 24-1089): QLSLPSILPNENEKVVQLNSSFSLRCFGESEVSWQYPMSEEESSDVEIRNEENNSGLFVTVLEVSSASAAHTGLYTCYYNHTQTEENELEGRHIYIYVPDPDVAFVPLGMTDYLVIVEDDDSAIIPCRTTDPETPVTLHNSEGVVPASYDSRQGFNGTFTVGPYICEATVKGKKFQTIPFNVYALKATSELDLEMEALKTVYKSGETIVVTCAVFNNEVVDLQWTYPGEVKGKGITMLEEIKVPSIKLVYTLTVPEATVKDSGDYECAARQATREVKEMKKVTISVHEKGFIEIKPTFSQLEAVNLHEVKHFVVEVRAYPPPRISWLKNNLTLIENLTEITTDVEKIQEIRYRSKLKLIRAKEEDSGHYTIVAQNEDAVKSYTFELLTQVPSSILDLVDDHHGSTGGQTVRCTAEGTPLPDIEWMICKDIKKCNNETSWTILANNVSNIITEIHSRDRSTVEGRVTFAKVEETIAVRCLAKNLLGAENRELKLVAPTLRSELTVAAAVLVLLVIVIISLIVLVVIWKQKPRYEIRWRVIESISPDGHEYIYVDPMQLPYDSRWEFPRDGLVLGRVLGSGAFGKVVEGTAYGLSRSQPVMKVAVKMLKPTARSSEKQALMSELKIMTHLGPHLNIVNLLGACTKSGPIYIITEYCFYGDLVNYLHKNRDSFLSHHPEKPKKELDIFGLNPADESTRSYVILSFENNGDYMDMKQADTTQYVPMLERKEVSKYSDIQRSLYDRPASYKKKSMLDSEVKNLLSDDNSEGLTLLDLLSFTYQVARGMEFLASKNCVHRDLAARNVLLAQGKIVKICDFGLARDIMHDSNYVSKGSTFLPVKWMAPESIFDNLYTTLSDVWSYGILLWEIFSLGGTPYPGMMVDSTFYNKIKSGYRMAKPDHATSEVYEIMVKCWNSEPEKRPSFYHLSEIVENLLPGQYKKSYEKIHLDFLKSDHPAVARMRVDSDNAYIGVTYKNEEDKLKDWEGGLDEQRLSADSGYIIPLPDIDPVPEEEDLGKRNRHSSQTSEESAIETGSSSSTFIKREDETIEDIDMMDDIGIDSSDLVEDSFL
T1 sequence (P09619 33-1106): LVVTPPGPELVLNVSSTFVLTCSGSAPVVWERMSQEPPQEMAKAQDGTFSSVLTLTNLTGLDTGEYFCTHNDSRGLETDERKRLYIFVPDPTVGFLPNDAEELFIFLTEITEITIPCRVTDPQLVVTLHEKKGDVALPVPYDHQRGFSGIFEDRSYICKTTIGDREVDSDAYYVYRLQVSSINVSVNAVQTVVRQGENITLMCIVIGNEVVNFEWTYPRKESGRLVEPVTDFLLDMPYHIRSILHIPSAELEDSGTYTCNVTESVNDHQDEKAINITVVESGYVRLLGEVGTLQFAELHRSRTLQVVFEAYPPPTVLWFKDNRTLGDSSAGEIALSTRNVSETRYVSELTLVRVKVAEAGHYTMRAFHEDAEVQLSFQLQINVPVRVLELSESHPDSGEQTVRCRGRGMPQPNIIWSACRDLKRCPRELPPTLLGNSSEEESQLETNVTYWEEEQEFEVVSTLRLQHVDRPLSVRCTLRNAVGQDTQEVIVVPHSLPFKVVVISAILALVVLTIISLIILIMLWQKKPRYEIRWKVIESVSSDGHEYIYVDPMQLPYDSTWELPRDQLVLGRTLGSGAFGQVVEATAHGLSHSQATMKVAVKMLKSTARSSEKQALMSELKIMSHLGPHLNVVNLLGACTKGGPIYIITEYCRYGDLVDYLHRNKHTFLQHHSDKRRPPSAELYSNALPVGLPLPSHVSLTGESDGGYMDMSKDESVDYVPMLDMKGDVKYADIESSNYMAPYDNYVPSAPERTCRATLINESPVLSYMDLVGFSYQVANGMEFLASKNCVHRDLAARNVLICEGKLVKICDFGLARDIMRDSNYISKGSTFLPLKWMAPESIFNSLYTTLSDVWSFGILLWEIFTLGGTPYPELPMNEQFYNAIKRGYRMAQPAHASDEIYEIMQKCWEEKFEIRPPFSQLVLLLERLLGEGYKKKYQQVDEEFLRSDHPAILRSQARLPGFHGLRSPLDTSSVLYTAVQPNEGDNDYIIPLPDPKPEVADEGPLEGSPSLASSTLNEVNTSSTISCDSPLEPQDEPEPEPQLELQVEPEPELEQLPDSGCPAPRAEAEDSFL

Compound | melting point | IC50 [2] | IC50 [4] | IC50 [5] | IC50 [7] | IC50 [9] | IC50 [10] | IC50 [3] | also measured
COc1ccc(C(=O)N2CCN(C(=O)c3cccc(C(=O)Nc4cccc(C(F)(F)F)c4)c3)CC2)cc1 [Compound 7, 3-(4-(4-Methoxybenzoyl)piperazine-1-carbonyl)-N-(3-(trifluoromethyl)phenyl)benzamide] | 72 to 74 °C | – | – | – | – | – | – | – | –
COc1ccc(C(=O)N2CCN(C(=O)c3cccc(C(=O)Nc4cc(-n5cnc(C)c5)cc(C(F)(F)F)c4)c3)CC2)cc1 [Compound 13, 3-(4-(4-Methoxybenzoyl)piperazine-1-carbonyl)-N-(3-(4-methyl-1H-imidazol-1-yl)-5-(trifluoromethyl)-phenyl)benzamide] | 144 to 146 °C | – | – | – | – | – | – | – | –
Cc1cn(-c2cc(NC(=O)c3cccc(C(=O)N4CCN(C(=O)c5cccc(F)c5)CC4)c3)cc(C(F)(F)F)c2)cn1 [Compound 15, 3-(4-(3-Fluorobenzoyl)piperazine-1-carbonyl)-N-(3-(4-methyl-1H-imidazol-1-yl)-5-(trifluoromethyl)phenyl)-benzamide] | 130 to 135 °C | 45.8 ± 1.76 µM | 10.5 ± 2.54 µM | > 50 µM | 34.8 ± 4.7 µM | > 50 µM | 27.38 ± 0.26 µM | 29.4 ± 1.79 µM | Apoptosis, % (cell cycle analysis) ([1]; K562, 1 µM): 17.90%; G1, % ([1]; K562, 1 µM): 30.15%; G2/M, % ([1]; K562, 1 µM): 48.54%; S, % ([1]; K562, 1 µM): 21.31%; Apoptosis, % (cell cycle analysis) ([1]; K562, 5 µM): 20.54%; G1, % ([1]; K562, 5 µM): 34.76%; G2/M, % ([1]; K562, 5 µM): 53.65%; S, % ([1]; K562, 5 µM): 11.59%; Apoptosis, % (cell cycle analysis) ([1]; K562, 10 µM): 32.72%; G1, % ([1]; K562, 10 µM): 28.85%; G2/M, % ([1]; K562, 10 µM): 62.99%; S, % ([1]; K562, 10 µM): 8.16%; normal live cells (living cells) ([6]; K562, 1 µM): 74.91%; normal live cells (living cells) ([6]; K562, 5 µM): 68.41%; normal live cells (living cells) ([6]; K562, 10 µM): 60.97%; ROS Level, % of Control ([8]; K562, 5 µM): 92.89 % of Control; ROS Level, % of Control ([8]; K562, 10 µM): 87.87 % of Control; ROS Level, % of Control ([8]; K562, 20 µM): 94.07 % of Control
CNC(=O)c1cc(Oc2ccc(NC(=O)c3ccc(C(=O)Nc4cccc(C(F)(F)F)c4)cc3)cc2)ccn1 [Compound 18, N1-(4-((2-(methylcarbamoyl)pyridin-4-yl)oxy)phenyl)-N4-(3-(trifluoromethyl)phenyl)terephthalamide] | – | 45.9 ± 1.83 µM | 26.9 µM | > 50 µM | > 50 µM | 34.4 ± 2.52 µM | > 50 µM | 46 ± 1.76 µM | –
O=C(Nc1cccc(C(F)(F)F)c1)c1ccc(C(=O)N2CCN(C(=O)c3ccccc3F)CC2)cc1 [Compound 20, 4-(4-(2-Fluorobenzoyl)piperazine-1-carbonyl)-N-(3-(trifluoromethyl)phenyl)benzamide] | 215 to 217 °C | > 50 µM | > 50 µM | > 50 µM | > 50 µM | > 50 µM | > 50 µM | > 50 µM | –
O=C(Nc1cccc(C(F)(F)F)c1)c1ccc(C(=O)N2CCN(C(=O)c3cccc(F)c3)CC2)cc1 [Compound 21, 4-(4-(3-Fluorobenzoyl)piperazine-1-carbonyl)-N-(3-(trifluoromethyl)phenyl)benzamide] | – | > 50 µM | > 50 µM | > 50 µM | > 50 µM | > 50 µM | > 50 µM | > 50 µM | –
Cc1cn(-c2cc(NC(=O)c3ccc(C(=O)Nc4cc(-n5cnc(C)c5)cc(C(F)(F)F)c4)cc3)cc(C(F)(F)F)c2)cn1 [Compound 22, N1,N4-bis(3-(4-methyl-1H-imidazol-1-yl)-5-(trifluoromethyl)phenyl)terephthalamide] | 295 to 296 °C | > 50 µM | > 50 µM | > 50 µM | > 50 µM | > 50 µM | > 50 µM | > 50 µM | –
CNC(=O)c1cc(Oc2ccc(NC(=O)Nc3ccc(Cl)c(C(F)(F)F)c3)cc2)ccn1 [Sorafenib, reference compound] | – | 5.01 ± 0.14 µM | 2.44 ± 0.21 µM | 12.5 ± 1.64 µM | 3.37 ± 0.42 µM | 7.17 ± 0.5 µM | 8.62 ± 2.24 µM | 3.48 ± 0.39 µM | Apoptosis, % (cell cycle analysis) ([1]; K562, 1 µM): 22.60%; G1, % ([1]; K562, 1 µM): 36.50%; S, % ([1]; K562, 1 µM): 7.72%; Apoptosis, % (cell cycle analysis) ([1]; K562, 5 µM): 44.20%; G1, % ([1]; K562, 5 µM): 33.87%; S, % ([1]; K562, 5 µM): 30.14%; inhibition at 10 µM [11]: 100%; normal live cells (living cells) ([6]; K562, 1 µM): 84.11%; early apoptotic cells ([6]; K562, 5 µM): 36.2%; late apoptotic cells ([6]; K562, 5 µM): 19.57%; normal live cells (living cells) ([6]; K562, 5 µM): 42.32%; necrotic cells ([6]; K562, 10 µM): 5.73%; normal live cells (living cells) ([6]; K562, 10 µM): 26.41%; inhibition at 10 µM [12]: 100%; ROS Level, % of Control ([8]; K562, 5 µM): 69.20 % of Control; ROS Level, % of Control ([8]; K562, 10 µM): 79.03 % of Control; ROS Level, % of Control ([8]; K562, 20 µM): 71.59 % of Control

More lines, main results first:

melting point | IC50 [2] | IC50 [4] | IC50 [5] | IC50 [7] | IC50 [9] | IC50 [10] | Compound | IC50 [3] | also measured
299 to 300 °C | – | – | – | – | – | – | CNC(=O)c1cc(Oc2ccc(NC(=O)c3ccc(C(=O)Nc4cc(-n5cnc(C)c5)cc(C(F)(F)F)c4)cc3)cc2)ccn1 [Compound 23, N1-(3-(4-methyl-1H-imidazol-1-yl)-5-(trifluoromethyl)phenyl)-N4-(4-((2-(methylcarbamoyl)pyridin-4-yl)oxy)phenyl)terephthalamide] | – | –
212 to 214 °C | – | – | – | – | – | – | COc1ccc(C(=O)N2CCN(C(=O)c3ccc(C(=O)Nc4cc(-n5cnc(C)c5)cc(C(F)(F)F)c4)cc3)CC2)cc1 [Compound 25, 4-(4-(4-methoxybenzoyl)piperazine-1-carbonyl)-N-(3-(4-methyl-1H-imidazol-1-yl)-5-(trifluoromethyl)-phenyl)benzamide] | – | –
142 to 145 °C | 44.3 ± 4.79 µM | 18.5 ± 0.73 µM | > 50 µM | 26.4 ± 1.73 µM | > 50 µM | 48.8 ± 1.17 µM | Cc1cn(-c2cc(NC(=O)c3ccc(C(=O)N4CCN(C(=O)c5ccccc5F)CC4)cc3)cc(C(F)(F)F)c2)cn1 [Compound 26, 4-(4-(2-fluorobenzoyl)piperazine-1-carbonyl)-N-(3-(4-methyl-1H-imidazol-1-yl)-5-(trifluoromethyl)phenyl)-benzamide] | 23.97 ± 0.03 µM | –
110 to 113 °C | 38.6 ± 1.11 µM | 22.2 ± 2.12 µM | > 50 µM | 26 ± 4.15 µM | > 50 µM | 49.4 ± 0.67 µM | Cc1cn(-c2cc(NC(=O)c3ccc(C(=O)N4CCN(C(=O)c5cccc(F)c5)CC4)cc3)cc(C(F)(F)F)c2)cn1 [Compound 27, 4-(4-(3-fluorobenzoyl)piperazine-1-carbonyl)-N-(3-(4-methyl-1H-imidazol-1-yl)-5-(trifluoromethyl)phenyl)-benzamide] | 24.08 ± 0.07 µM | –
